The values below come from publication PMC12278645, “Design, synthesis, and antitumor activity of novel thioheterocyclic nucleoside derivatives by suppressing the c-MYC pathway” (Acta Pharmaceutica Sinica. B, 2025).

Assay [1] has as its system A375 (human malignant melanoma). In words: CCK-8 anti-proliferation assay, A375. In kind it is cell-based. The conditions noted are these: CCK-8, 48 h, mean ± SD. How it is done:
(§1) To evaluate their spectrum of anti-proliferative activity, further CCK-8 assays were carried out with the selected compounds (5a/5b, 8a/8b, 33a/33b, and 36a/36b) on MCF-7 (human breast cancer), A375 (human malignant melanoma), DU145 (human prostate cancer), and CT26 (mouse colon cancer) cell lines. The selected compounds had moderate to potent antitumor activity on the four cell lines, indicating their broad spectrum of antitumor activity (Table 5).
(§2) MCF-7, A375, and HeLa cells were cultured in DMEM, HCT116 cells were cultured in McCoy's 5A medium, and DU145 and CT26 were cultured in RPMI 1640 with 10% FBS, 1% penicillin-streptomycin solution (10,000 U/mL penicillin and 10,000 μg/mL streptomycin) at 37 °C under 5% CO2. The cells were seeded in 96-well plates (4 × 10^3 cells/well) overnight and then treated with various concentrations (1–50 μmol/L) of the compound. After 48 h, the cell viability was measured by CCK-8 assay. The absorbance of each well was measured using a microplate reader (Multiskan FC, Thermo Fisher Scientific, Massachusetts, USA) at 450 nm wavelength. Assays were performed in triplicate. Compound concentrations that inhibited cell growth by 50% (IC50) were calculated from the dose–response curves of each cell line. Data are mean ± SD values from three independent experiments.

Assay [2] has as its system MCF-7 (human breast cancer). The assay is described as follows: CCK-8 anti-proliferation assay, MCF-7. The assay is classed as cell-based. The conditions noted are these: CCK-8, 48 h, mean ± SD. How it is done:
as §1, §2

Another assay has as its system HeLa cells. In words: CCK-8 anti-proliferation assay, HeLa. The assay is classed as cell-based, human. The method, then:
(§3) Tumor cell anti-proliferation activities were determined by cell counting kit-8 (CCK-8) assay.
as §2

The next assay deals with HCT116 cells. The assay is described as follows: CCK-8 anti-proliferation assay, HCT116. The assay is classed as cell-based, human. How it is done: as §3, §2
Assay [3] deals with DU145 (human prostate cancer). In words: CCK-8 anti-proliferation assay, DU145. The conditions noted are these: CCK-8, 48 h, mean ± SD. In kind it is cell-based. The method, then:
as §1, §2

The subject of assay [4] is CT26 (mouse colon cancer). The assay is described as follows: CCK-8 anti-proliferation assay, CT26. As to conditions: CCK-8, 48 h, mean ± SD. In kind it is cell-based. The method, then:
as §1, §2

[5] abbreviates: CCK-8, 48 h, mean ± SD, three independent experiments.
[6] abbreviates: Homo sapiens, HeLa, 48 h, CCK-8, 48 h, mean ± SD, three independent experiments.
[7] abbreviates: Homo sapiens, HCT-116, 48 h, CCK-8, 48 h, mean ± SD, three independent experiments.

As to `CCCSc1nc(F)nc2c1ncn2C1(C(=O)OCC)CSCC1O` (stereo not shown) [36a], the IC50 came to 4.27 ± 1.02 µM in assay [1]; 11.3 ± 1.27 µM in assay [2]; 9.68 ± 1.12 µM in the assay on HeLa cells (setting [5]); 0.72 ± 0.12 µM with HCT116 cells (setting [5]); 9.48 ± 1.11 µM in assay [3]; 0.94 ± 0.11 µM in assay [4].

On to `CCOC(=O)C1(n2cnc3c(N4CCCCC4)nc(F)nc32)CSCC1O` (stereo not shown) [33b], for which the IC50 is 14.67 ± 0.09 µM in assay [1]; 7.47 ± 1.17 µM in assay [2]; 8.15 ± 1.08 µM with HeLa cells (setting [5]); 0.46 ± 0.04 µM with HCT116 cells (setting [5]); 18.6 ± 2.12 µM in assay [3]; 0.79 ± 0.14 µM in assay [4].

For `CCOC(=O)C1(n2cnc3c(N4CCCCC4)ncnc32)CSCC1O` (single isomer, unassigned) [5b], the IC50 stood at 7.52 ± 1.03 µM in assay [1]; 35.2 ± 2.14 µM in assay [2]; 4.61 ± 0.87 µM with HeLa cells (setting [5]); 1.77 ± 0.12 µM in the assay on HCT116 cells (setting [5]); 42.5 ± 2.11 µM in assay [3]; 2.42 ± 0.11 µM in assay [4].

Consider `CCCSc1ncnc2c1ncn2C1(C(=O)OCC)CSCC1O` (single isomer, unassigned) [8b], for which the IC50 in assay [1] was 2.82 ± 0.03 µM; in assay [2], 25.4 ± 2.45 µM; in the assay on HeLa cells (setting [5]), 2.55 ± 0.12 µM; with HCT116 cells (setting [5]) it was 2.02 ± 0.07 µM; in assay [3] it was 11 ± 1.04 µM; in assay [4], 2.37 ± 0.08 µM.

For the compound `O=c1[nH]cc(F)c(=O)[nH]1` [5-FU, 5-fluorouracil, reference compound], the IC50 is 8.62 ± 1.21 µM in assay [1] (Homo sapiens, A-375); greater than 50 µM in assay [2] (Homo sapiens, MCF7); 4.93 ± 1.02 µM in the assay on HeLa cells (setting [6]); 9.84 ± 2.32 µM with HCT116 cells (setting [7]); 21.4 ± 2.17 µM in assay [3] (Homo sapiens, DU-145); 3.12 ± 0.13 µM in assay [4] (Mus musculus, CT26).

Take `CCOC(=O)C1(n2cnc3c(N(C)C)ncnc32)CSCC1O` (single isomer, unassigned) [4b]: the IC50 in the assay with HeLa cells (setting [5]) came out at 12 ± 1.57 µM; with HCT116 cells (setting [5]), 49.5 ± 2.02 µM.

`CCOC(=O)[C@@]1(n2cnc3c(N4CCCCC4)nc(F)nc32)CSC[C@@H]1O` [33 ab]: the IC50 turned out to be 10.1 ± 1.02 µM in the assay with HeLa cells (setting [6]) and 0.21 ± 0.13 µM in the assay with HCT116 cells (setting [7]).

Consider `N.N.[Cl][Pt][Cl]` [Cisplatin, cisplatin, reference compound], for which the IC50 in assay [1] came out at 9.42 ± 0.87 µM; in assay [2], 6.32 ± 0.74 µM; in the assay on HeLa cells (setting [5]) it was 11.2 ± 0.81 µM; with HCT116 cells (setting [5]), 5.29 ± 0.25 µM; in assay [3] it was 9.65 ± 0.48 µM; in assay [4], 22.5 ± 1.28 µM.

Consider `CCOC(=O)C1(n2cnc3c(N4CCCCC4)ncnc32)CSCC1O` (single isomer, unassigned) [5a], for which the IC50 in assay [1] worked out at 11.8 ± 1.12 µM; in assay [2], 11.2 ± 1.04 µM; in the assay with HeLa cells (setting [5]), 2.65 ± 0.52 µM; in the assay on HCT116 cells (setting [5]), 1.84 ± 0.14 µM; in assay [3], 42.8 ± 2.12 µM; in assay [4] it was 2.33 ± 0.14 µM.

In the case of `CCCSc1ncnc2c1ncn2C1(C(=O)OCC)CSCC1O` (single isomer, unassigned) [8a], the half-maximal inhibitory concentration (IC50) in assay [1] is 4.52 ± 1.12 µM; in assay [2] it was 28.2 ± 2.16 µM; in the assay on HeLa cells (setting [5]) it was 2.77 ± 0.41 µM; in the assay with HCT116 cells (setting [5]), 3.43 ± 0.23 µM; in assay [3] it was 29.3 ± 1.37 µM; in assay [4], 2.58 ± 0.15 µM.

As for `CCCCSc1ncnc2c1ncn2[C@@]1(C(=O)OCC)CSC[C@H]1O` (relative stereo) [25a], the IC50 came out at 9.89 ± 1.02 µM in the assay with HeLa cells (setting [6]) and 9.07 ± 0.49 µM in the assay with HCT116 cells (setting [7]).

As for `CCCSc1nc(F)nc2c1ncn2[C@@]1(C(=O)OCC)CSC[C@@H]1O` [36ba], the values for the IC50 with HeLa cells (setting [5]) and in the assay with HCT116 cells (setting [5]) were 5.52 ± 1.12 µM and 0.89 ± 0.14 µM, respectively.

As to `CCOC(=O)C1(n2cnc3cncnc32)CSCC1O` (stereo not shown) [1a], the IC50 in the assay on HeLa cells (setting [5]) and in the assay on HCT116 cells (setting [5]) was greater than 50 µM in each case. Besides, the “anticancer activity” value in the assay on HCT116 cells (under 50 μmol/L, HeLa and HCT116) is reported as “no anticancer activity”.

Consider `CCCCSc1ncnc2c1ncn2[C@@]1(C(=O)OCC)CSC[C@@H]1O` (relative stereo) [25b], for which the results for the IC50 in the assay with HeLa cells (setting [6]) and in the assay with HCT116 cells (setting [7]) were 6.32 ± 0.82 µM and 2.84 ± 0.27 µM, respectively.

In the case of `CCOC(=O)[C@]1(n2cnc3c(Sc4cccc(F)c4)ncnc32)CSC[C@H]1O` (relative stereo) [28a], the IC50 in the assay with HeLa cells (setting [6]) was 9.47 ± 1.02 µM; in the assay on HCT116 cells (setting [7]) it was 12.8 ± 1.08 µM.

For `CCOC(=O)C1(n2cnc3c(Cl)ncnc32)CSCC1O` (single isomer, unassigned) [2b], the IC50 with HeLa cells (setting [5]) and in the assay with HCT116 cells (setting [5]) was greater than 50 µM throughout.

For `CCOC(=O)C1(n2cnc3c(N4CCC(Cc5ccccc5)CC4)ncnc32)CSCC1O` (stereo not shown) [16a], the values for the concentration for half-maximal inhibition (IC50) in the assay on HeLa cells (setting [5]) and in the assay with HCT116 cells (setting [5]) were 3.34 ± 0.36 µM and 1.2 ± 0.09 µM, respectively.

`CCOC(=O)C1(n2cnc3c(N(C)C)ncnc32)CSCC1O` (single isomer, unassigned) [4a]: the figures for the IC50 with HeLa cells (setting [5]) and in the assay on HCT116 cells (setting [5]) were 9.81 ± 1.12 µM and 17.4 ± 1.01 µM, respectively.

Consider `CCOC(=O)[C@]1(n2cnc3c(SCCCCl)ncnc32)CSC[C@@H]1O` (relative stereo) [31b], for which the IC50 in the assay on HeLa cells (setting [6]) and with HCT116 cells (setting [7]) was greater than 50 µM in each case.

On to `C#CCSc1ncnc2c1ncn2[C@@]1(C(=O)OCC)CSC[C@H]1O` (relative stereo) [24a], for which the IC50 in the assay with HeLa cells (setting [6]) is 15.9 ± 2.12 µM; in the assay with HCT116 cells (setting [7]), 1.81 ± 0.12 µM.

Regarding `CCOC(=O)C1(n2cnc3c(N4CCOCC4)ncnc32)CSCC1O` (single isomer, unassigned) [9b], the IC50 with HeLa cells (setting [5]) amounted to 10.2 ± 1.05 µM; in the assay with HCT116 cells (setting [5]), 17.1 ± 1.12 µM.

For the compound `CCOC(=O)C1(n2cnc3c(N4CCOCC4)nc(Cl)nc32)CSCC1O` (single isomer, unassigned) [42a], the IC50 was 6.32 ± 1.02 µM with HeLa cells (Table S3, CCK-8, mean ± SD) and 24.2 ± 1.32 µM with HCT116 cells (Table S3, CCK-8, mean ± SD).

As to `CCOC(=O)[C@]1(n2cnc3c(SCCCF)ncnc32)CSC[C@@H]1O` (relative stereo) [30b], the figures for the IC50 in the assay with HeLa cells (setting [6]) and in the assay on HCT116 cells (setting [7]) were 12.1 ± 1.12 µM and 10.9 ± 1.01 µM, respectively.

With `CCOC(=O)C1(n2cnc3c(N4CCC(N5CCOCC5)CC4)ncnc32)CSCC1O` (single isomer, unassigned) [15a], the IC50 was 13.7 ± 1.33 µM in the assay with HeLa cells (setting [5]) and 43.9 ± 2.11 µM with HCT116 cells (setting [5]).

Regarding `CCCCCSc1ncnc2c1ncn2[C@@]1(C(=O)OCC)CSC[C@@H]1O` (relative stereo) [26b], the IC50 is greater than 50 µM in the assay on HeLa cells (setting [6]) and 11.8 ± 1.27 µM with HCT116 cells (setting [7]).

Take `CCOC(=O)C1(n2cnc3c(N4CCC(C(F)(F)F)CC4)ncnc32)CSCC1O` (single isomer, unassigned) [13b]: the 50% inhibitory concentration (IC50) in the assay on HeLa cells (setting [5]) worked out at 38.7 ± 2.09 µM; with HCT116 cells (setting [5]), 2.37 ± 0.36 µM.

With `CCOC(=O)C1(n2cnc3c(N4CCSCC4)ncnc32)CSCC1O` (single isomer, unassigned) [10b], the IC50 came out at 10.2 ± 1.93 µM in the assay on HeLa cells (setting [5]) and 10.1 ± 1.01 µM with HCT116 cells (setting [5]).

Consider `CCOC(=O)[C@]1(n2cnc3c(Sc4ccc(C(C)(C)C)cc4)ncnc32)CSC[C@H]1O` (relative stereo) [29a], for which the half-inhibitory concentration (IC50) turned out to be 21.2 ± 2.37 µM in the assay on HeLa cells (setting [6]) and 7.6 ± 1.22 µM in the assay on HCT116 cells (setting [7]).

Regarding `CCOC(=O)C1(n2cnc3c(Cl)nc(F)nc32)CSCC1O` (single isomer, unassigned) [39a], the IC50 came to 11.2 ± 1.32 µM in the assay with HeLa cells (Table S3, CCK-8, mean ± SD) and 3.42 ± 0.42 µM in the assay with HCT116 cells (Table S3, CCK-8, mean ± SD).

Take `CCOC(=O)C1(n2cnc3c(N4CCCCC4)nc(Cl)nc32)CSCC1O` (single isomer, unassigned) [34b]: the IC50 in the assay with HeLa cells (setting [5]) is 4.05 ± 0.37 µM; in the assay on HCT116 cells (setting [5]), 4.3 ± 0.51 µM.

For `CCOC(=O)[C@]1(n2cnc3c(SC)ncnc32)CSC[C@@H]1O` (relative stereo) [21b], the IC50 in the assay on HeLa cells (setting [6]) was found to be 8.83 ± 0.78 µM; in the assay with HCT116 cells (setting [7]), 32.7 ± 1.17 µM.

As to `CCOC(=O)C1(n2cnc3c(N4CCC(Cl)CC4)ncnc32)CSCC1O` (single isomer, unassigned) [14b], the IC50 in the assay with HeLa cells (setting [5]) was found to be 14.3 ± 1.58 µM; in the assay with HCT116 cells (setting [5]), 18 ± 2.37 µM.
